Measurements reported in paper PMC2151644 (The Journal of General Physiology, 2007).
Residue numbers refer to the chain shown, from its start.

What was measured:
[1] = biological target: T1, epithelial sodium channel (ENaC), β subunit (FLAG-tagged/G525C β-ENaC) (Rattus norvegicus, UniProt P37089+P37090+P37091, P37090:G525C); experiment: dose-response block of short-circuit current in MDCK monolayers; format: cell-based
T1 sequence (P37090 1-638 G525C): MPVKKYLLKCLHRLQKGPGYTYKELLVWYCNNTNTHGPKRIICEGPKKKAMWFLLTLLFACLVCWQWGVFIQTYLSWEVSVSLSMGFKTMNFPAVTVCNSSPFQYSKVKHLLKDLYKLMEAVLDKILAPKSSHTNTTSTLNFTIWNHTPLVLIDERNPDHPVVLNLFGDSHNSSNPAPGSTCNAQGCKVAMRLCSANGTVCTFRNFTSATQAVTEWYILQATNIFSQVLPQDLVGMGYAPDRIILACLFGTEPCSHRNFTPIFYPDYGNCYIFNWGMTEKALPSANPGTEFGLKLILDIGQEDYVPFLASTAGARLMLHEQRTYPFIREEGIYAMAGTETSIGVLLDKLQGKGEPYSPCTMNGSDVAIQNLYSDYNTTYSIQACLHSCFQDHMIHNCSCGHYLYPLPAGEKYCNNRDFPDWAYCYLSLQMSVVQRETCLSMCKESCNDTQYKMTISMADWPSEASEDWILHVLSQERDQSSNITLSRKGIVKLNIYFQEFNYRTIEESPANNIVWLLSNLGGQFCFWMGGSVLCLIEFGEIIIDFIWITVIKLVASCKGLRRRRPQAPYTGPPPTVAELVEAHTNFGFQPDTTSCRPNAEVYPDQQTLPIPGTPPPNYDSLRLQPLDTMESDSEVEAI
T1 sequence (P37089 1-698): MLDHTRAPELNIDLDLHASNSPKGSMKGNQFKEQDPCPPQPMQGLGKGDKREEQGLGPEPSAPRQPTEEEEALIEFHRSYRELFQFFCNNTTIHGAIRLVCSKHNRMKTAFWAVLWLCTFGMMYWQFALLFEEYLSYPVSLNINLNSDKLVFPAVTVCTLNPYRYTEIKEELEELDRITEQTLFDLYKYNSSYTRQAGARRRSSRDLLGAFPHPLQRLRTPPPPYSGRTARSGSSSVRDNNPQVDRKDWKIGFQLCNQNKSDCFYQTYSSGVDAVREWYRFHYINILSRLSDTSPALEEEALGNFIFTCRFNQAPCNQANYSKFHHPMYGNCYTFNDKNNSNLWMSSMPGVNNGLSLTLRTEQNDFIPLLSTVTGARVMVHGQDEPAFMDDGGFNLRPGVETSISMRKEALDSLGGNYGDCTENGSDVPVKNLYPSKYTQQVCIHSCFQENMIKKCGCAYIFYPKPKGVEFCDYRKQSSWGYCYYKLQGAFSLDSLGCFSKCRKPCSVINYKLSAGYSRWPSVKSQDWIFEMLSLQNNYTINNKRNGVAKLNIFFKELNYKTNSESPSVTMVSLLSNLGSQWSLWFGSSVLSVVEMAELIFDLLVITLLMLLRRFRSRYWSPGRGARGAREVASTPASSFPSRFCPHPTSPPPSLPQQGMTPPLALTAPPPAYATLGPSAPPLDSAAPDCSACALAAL
T1 sequence (P37091 1-650): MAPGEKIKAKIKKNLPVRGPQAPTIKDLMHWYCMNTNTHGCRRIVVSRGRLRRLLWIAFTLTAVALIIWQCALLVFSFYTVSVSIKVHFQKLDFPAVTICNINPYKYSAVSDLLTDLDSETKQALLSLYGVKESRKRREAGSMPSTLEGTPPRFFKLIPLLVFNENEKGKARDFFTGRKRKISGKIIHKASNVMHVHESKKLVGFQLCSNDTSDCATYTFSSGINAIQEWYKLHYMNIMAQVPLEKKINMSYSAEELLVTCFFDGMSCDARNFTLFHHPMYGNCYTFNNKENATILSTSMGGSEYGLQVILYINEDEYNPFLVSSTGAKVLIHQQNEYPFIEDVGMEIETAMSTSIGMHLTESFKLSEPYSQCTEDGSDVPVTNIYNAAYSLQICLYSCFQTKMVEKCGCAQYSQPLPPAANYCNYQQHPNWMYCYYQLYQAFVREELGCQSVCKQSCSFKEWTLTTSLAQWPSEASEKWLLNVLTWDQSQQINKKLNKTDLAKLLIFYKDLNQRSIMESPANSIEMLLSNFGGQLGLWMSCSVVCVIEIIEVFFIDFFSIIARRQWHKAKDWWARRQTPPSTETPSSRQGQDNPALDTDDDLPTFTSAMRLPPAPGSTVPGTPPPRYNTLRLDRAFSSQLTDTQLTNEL

[2] = biological target: T2, epithelial sodium channel (ENaC), β subunit (FLAG-tagged β-ENaC) (Rattus norvegicus, UniProt P37089+P37090+P37091); experiment: as above; format: cell-based
T2 sequence (P37090 1-638): T1 sequence (P37090 1-638 G525C) with C525G
T2 sequence (P37089 1-698): T1 sequence (P37089 1-698)
T2 sequence (P37091 1-650): T1 sequence (P37091 1-650)

SMILES: NC(=NCc1ccccc1)NC(=O)c1nc(Cl)c(N)nc1N [benzamil]
- Ki [1]: 2900 nM
- Ki [2]: 18 nM

SMILES: N=C(N)NC(=O)c1nc(Cl)c(N)nc1N [amiloride]
- Ki [1]: 36000 nM
- Ki [2]: 84 nM
